# Measurements as given in publication PMC7883873, “Discovery of New Catalytic Topoisomerase II Inhibitors for Anticancer Therapeutics” (Frontiers in Oncology, 2021).
# What was measured:
# [1] = test system: salmon sperm DNA; assay: Ethidium bromide displacement assay; format: binding; settings: increasing doses; 100 µg/ml DNA, 2 µg/ml ethidium bromide
# Description: Ethidium bromide displacement assay was performed as previously described ([49], [50]) using Amsacrine (mAMSA) as a positive control. In a 20 µl reaction, compounds were mixed with 100 µg/ml of salmon sperm DNA and 2 µg/ml of ethidium bromide in a fluorescence buffer containing 10 mM HEPES, pH 7.9, 100 mM KCl, 5 mM MgCl2, 0.1 mM EDTA, pH 8.0. Triplicate reactions were subjected to fluorescence emission of 590 nm and excitation of 535 nm. Signals were detected by using the Multimode Microplate Reader, Infinite® F500.
# [2] = test system: HeLa cells; assay: BrdU incorporation assay; format: cell-based; settings: 20 µM, 48 h
# Description: (§1) Cell proliferation rates were measured by using the CellTitre 96 AqueousOne kit (Promega) and bromodeoxyuridine (BrdU) assay kit (Millipore) according to the manufacturer’s protocol as we have described ([51]). Cytotoxicity was evaluated by using the commercial kit (CAT# 8078, ThermoFisher). Culture media was collected and used to measure lactate dehydrogenase (LDH) levels by a colorimetric method following the manufacture’s protocol (ThermoFisher). Cell cycling was assessed by using BrdU incorporation into S-phase DNA by using the APC BrdU flow kit (BD Pharmingen; Franklin Lakes, New Jersey) according to the manufacturer’s protocol. 1 mM of BrdU was added to cells and incubated for 6 h. Cells were incubated with anti-BrdU antibody and stained with 7-AAD before processing the cells for flow cytometry ([52]). Immunoblotting assays followed the standard protocol as we have reported ([51]–[53]).
# [3] = test system: HeLa cells; assay: Confocal fluorescence microscopy; format: cell-based; settings: 20 µM, 48 h
# Description: Cells were fixed with 4% paraformaldehyde, treated in 0.25% Triton X-100 for 15 min, incubated with F-actin conjugated to Phalloidin-iFluor 488 (Abcam; UK), and mounted with DAPI staining mount (Vector Labs; Burlingame, USA). Cell images were captured by confocal microscopy at 63× magnification (Zeiss; Germany) ([51], [53]).
# [4] = test system: AR-v7; assay: Probasin- and PSA-luciferase reporter in 293T cells; format: cell-based; settings: 0-20 µM
# [5] = test system: AR full-length (AR-fl); assay: Immunoblotting of AR protein levels; format: cell-based; settings: LNCaP and LNCaP95 cells, 0-20 µM
# Description: as §1
# [6] = molecular target: T1, TOP2A (Homo sapiens, UniProt P11388); assay: Relaxation and K-DNA decatenation assays of candidates and T60 derivatives (SAR); format: biochemical; parameters: full-length human TOP2A and TOP2B protein (TopoGEN and Inspiralis respectively); purchased TopoGEN TG1001 (human TOP2 assay kit); settings: compared with T60
# Description: The human TOP2 assay kit (#TG1001, TopoGEN, Buena Vista, CO) and TOP2B (HTB205, Inspiralis, UK) were used for K-DNA decatenation assays. […] The reaction was incubated at 37C for 2 h after which 4 µl stop solution (5× buffer is 5% Sarkosyl, 0.125% bromophenol blue, 25% glycerol) was added. The reaction was resolved by electrophoresis on a 0.8% agarose gel at 60 V and stained with 0.5 µg/ml ethidium bromide for 15 min. DNA bands were visualized using a gel imager (Gel Doc™ EZ System) and quantified using the Image Studio™ Lite Quantification Software.
# The human TOP2A and TOP2B were used to perform DNA relaxation assays. […] The reaction was incubated at 37C for 2 h and stopped by adding 2 µl of 10% SDS and 1 µl of 250 mM of EDTA, followed by the addition of 50 µg/ml of proteinase K at 45 C for 1 h. The reaction was then resolved by electrophoresis on a 1% agarose gel at 80 V and stained with 0.5 µg/ml ethidium bromide for 15 min. DNA bands were visualized using a gel imager (Gel Doc™ EZ System) and quantified using the Image Studio™ Lite Quantification Software.
# [7] = molecular target: T1, TOP2A; assay: Cellular thermal shift assay; format: cell-based; parameters: endogenous in cells; host or cells: K562 (the thermal shift text says HeLa, the legend says K562); K562 for chromatin fractionation; settings: 20 µM; vehicle 40C; Hela cells
# Description: (§2) In the thermal shift assays, cells were treated with vehicle or T60 for 1 h and split into equal aliquots to be heated at 37 to 46°. Protein lyses were collected to perform immunoblotting assays with TOP2 antibodies (Abcam 12318, Santa Cruz sc-13059 & sc-365071). Our chromatin fractionation assays followed the protocol as previously described (Méndez & Stillman, 2000; Wysocka, Reilly, & Herr, 2001). Briefly, K562 cells (4 × 10 ([7]) cells/ml) were collected and re-suspended in buffer A (10 mM HEPES [pH 7.9], 10 mM KCl, 1.5 mM MgCl2, 0.34 M sucrose, 10% glycerol, 1 mM DTT, and protease inhibitor cocktail), before Triton X-100 was added to final concentration at 0.1%. Cells were then incubated on ice for 10 min, and nuclei were collected by centrifugation at speed of 1,300g for 4 min at 4°C. The nuclei were then washed once with buffer A and then incubated with buffer B (3 mM EDTA, 0.2 mM EGTA, 1 mM DTT, and protease inhibitor cocktail [ROCHE]) for 30 min in ice. Insoluble chromatin was collected by centrifugation at 1,700g for 4 min at 4°C, and washed once with buffer B. Chromatin associated proteins were extracted by incubation with Buffer C [500 mM Tris-HCl (pH 6.8), 500 mM NaCl, and protease inhibitor cocktail (ROCHE)] followed by brief sonication. The supernatant was collected to perform immunoblotting assays with TOP2 antibodies as we have described ([51]–[53]).
# [8] = molecular target: T2, TOP2B (Homo sapiens, UniProt Q02880); assay: Cellular thermal shift assay; format: cell-based; parameters: endogenous in cells; host or cells: K562 (the thermal shift text says HeLa, the legend says K562); K562 for chromatin fractionation; settings: 20 µM; vehicle 40C; Hela cells
# Description: as §2
# [9] = molecular target: T1, TOP2A; assay: Chromatin fractionation assay; format: cell-based; parameters: endogenous in cells; host or cells: K562 (the thermal shift text says HeLa, the legend says K562); K562 for chromatin fractionation; settings: K562 cells, 0, 1, 20 µM, 24 hours
# Description: as §2
# [10] = molecular target: T2, TOP2B; assay: Chromatin fractionation assay; format: cell-based; parameters: endogenous in cells; host or cells: K562 (the thermal shift text says HeLa, the legend says K562); K562 for chromatin fractionation; settings: K562 cells, 0, 1, 20 µM, 24 hours
# Description: as §2
# T1 sequence (P11388 whole entry): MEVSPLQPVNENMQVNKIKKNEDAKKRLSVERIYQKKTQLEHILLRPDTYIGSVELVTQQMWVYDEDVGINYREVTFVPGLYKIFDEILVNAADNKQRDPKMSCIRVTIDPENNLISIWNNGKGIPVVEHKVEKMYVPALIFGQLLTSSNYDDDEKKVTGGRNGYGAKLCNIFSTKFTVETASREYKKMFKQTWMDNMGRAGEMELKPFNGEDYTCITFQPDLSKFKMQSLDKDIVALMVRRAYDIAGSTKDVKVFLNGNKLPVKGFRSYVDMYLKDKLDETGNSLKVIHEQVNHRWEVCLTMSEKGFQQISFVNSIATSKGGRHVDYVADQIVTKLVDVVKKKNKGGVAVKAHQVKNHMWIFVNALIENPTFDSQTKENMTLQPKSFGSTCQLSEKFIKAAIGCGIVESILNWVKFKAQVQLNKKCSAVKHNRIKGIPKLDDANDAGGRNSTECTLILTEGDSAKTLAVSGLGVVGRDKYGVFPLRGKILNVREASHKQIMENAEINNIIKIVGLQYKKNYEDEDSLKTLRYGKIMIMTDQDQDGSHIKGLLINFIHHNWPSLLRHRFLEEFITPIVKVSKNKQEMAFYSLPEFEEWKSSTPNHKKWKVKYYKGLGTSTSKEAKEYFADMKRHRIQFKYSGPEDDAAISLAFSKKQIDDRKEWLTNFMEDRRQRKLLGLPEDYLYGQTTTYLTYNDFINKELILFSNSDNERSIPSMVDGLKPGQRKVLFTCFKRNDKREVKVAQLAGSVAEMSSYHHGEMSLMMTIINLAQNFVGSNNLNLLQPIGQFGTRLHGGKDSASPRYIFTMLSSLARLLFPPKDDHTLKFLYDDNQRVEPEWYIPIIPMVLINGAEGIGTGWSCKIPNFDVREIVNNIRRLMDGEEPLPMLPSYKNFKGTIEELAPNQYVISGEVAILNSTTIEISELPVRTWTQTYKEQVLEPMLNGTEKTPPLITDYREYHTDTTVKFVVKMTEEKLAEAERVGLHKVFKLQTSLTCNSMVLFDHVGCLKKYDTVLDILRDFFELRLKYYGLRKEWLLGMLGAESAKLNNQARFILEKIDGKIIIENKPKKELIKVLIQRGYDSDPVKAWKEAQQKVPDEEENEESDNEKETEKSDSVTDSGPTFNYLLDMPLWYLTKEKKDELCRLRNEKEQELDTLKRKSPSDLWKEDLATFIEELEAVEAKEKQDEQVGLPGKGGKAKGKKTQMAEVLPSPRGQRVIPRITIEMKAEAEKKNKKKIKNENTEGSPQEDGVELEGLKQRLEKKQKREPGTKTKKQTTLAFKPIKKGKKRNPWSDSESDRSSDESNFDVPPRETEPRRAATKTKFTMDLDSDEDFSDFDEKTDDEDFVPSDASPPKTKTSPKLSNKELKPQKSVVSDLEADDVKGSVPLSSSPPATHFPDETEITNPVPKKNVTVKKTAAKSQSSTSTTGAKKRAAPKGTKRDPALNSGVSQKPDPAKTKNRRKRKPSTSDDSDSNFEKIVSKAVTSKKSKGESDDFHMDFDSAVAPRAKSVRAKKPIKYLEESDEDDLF
# T2 sequence (Q02880 2-1626 limits assumed): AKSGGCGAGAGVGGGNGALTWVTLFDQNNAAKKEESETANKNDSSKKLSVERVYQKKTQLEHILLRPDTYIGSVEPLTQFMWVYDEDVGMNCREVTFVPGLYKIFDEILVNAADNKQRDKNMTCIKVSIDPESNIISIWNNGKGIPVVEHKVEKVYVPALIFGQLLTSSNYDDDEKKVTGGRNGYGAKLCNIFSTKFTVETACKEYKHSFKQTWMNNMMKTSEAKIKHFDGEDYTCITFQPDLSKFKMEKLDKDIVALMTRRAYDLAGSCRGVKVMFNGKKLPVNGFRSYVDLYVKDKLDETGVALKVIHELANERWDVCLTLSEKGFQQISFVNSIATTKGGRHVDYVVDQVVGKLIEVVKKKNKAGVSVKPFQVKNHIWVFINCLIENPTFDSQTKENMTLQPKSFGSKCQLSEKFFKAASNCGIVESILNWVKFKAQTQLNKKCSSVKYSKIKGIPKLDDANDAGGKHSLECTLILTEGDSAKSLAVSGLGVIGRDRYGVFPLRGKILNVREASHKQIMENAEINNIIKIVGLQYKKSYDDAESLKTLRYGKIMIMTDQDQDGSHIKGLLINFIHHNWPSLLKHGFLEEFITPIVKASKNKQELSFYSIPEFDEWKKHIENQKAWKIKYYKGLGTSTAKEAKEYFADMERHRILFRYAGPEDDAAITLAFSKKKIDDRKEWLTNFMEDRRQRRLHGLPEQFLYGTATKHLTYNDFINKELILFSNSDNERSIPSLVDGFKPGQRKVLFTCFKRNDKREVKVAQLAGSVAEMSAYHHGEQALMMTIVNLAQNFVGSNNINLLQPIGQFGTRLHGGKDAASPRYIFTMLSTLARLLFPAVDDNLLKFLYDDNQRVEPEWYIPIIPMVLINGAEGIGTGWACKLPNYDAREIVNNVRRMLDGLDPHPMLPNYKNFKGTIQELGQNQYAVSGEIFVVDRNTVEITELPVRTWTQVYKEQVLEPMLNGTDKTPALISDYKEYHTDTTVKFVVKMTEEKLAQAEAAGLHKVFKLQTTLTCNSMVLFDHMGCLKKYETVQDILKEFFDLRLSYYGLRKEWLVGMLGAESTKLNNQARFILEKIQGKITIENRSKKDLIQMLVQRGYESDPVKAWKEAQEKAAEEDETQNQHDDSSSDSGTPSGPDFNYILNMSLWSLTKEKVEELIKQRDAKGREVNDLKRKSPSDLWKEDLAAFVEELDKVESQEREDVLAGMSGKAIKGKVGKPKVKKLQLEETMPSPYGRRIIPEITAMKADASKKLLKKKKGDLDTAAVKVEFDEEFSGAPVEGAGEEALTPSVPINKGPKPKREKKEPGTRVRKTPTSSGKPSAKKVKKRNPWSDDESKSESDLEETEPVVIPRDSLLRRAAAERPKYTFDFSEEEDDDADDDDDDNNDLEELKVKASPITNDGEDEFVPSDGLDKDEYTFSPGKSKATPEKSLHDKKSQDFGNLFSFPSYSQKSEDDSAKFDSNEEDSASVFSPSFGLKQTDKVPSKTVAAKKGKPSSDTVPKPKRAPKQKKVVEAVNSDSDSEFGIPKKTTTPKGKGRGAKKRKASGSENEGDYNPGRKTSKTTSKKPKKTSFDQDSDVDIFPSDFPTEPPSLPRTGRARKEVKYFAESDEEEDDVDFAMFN
structure (smiles),measurement,setting,value
O=C(Nc1ccc(Nc2ccccc2)cc1)c1ccc[nH]c1=S [T60],Fluorescence of ethidium bromide/DNA complex (DNA intercalation),[1],does not intercalate with DNA
same,DNA replication (BrdU incorporation),[2],reduced DNA replication
same,Cell morphology,[3],enlarged cell bodies and nuclei
same,"Luciferase activities driven by probasin and PSA promoters, AR-v7",[4],inhibited luciferase activities
same,Protein levels of AR full-length,[5],inhibited the protein levels
same,Activity on TOP2,[6],less active
same,Temperature up to which TOP2A protein is stabilized,[7],up to 43 C
same,Temperature up to which TOP2B protein is stabilized,[8],up to 43 C
same,TOP2A association with chromatin,[9],reduced
same,TOP2B association with chromatin,[10],reduced
